In ChEMBL document CHEMBL1201862, “PubChem BioAssay data set” (2004):
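Dose response: 5 concentrations. Exposure: 48 h. Format: 96-well plates. Endpoint: linear interpolation; highest concentration if not reached. Abbreviation: GI50, concentration required for 50% inhibition of growth.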 The source made the active and inactive calls. Rule as the data show it: active = GI50 up to about 1.1 µM and inactive = higher.

Columns and labels:
Experiment in all cases: inhibition of tumour cell growth, NCI panel, 48 h
UACC-62 = system: UACC-62
NCI-H23 = system: NCI-H23
K562 = system: K562
Hs-578T = system: Hs-578T
HOP-62 = system: HOP-62
SF-295 = system: SF-295
OVCAR-4 = system: OVCAR-4
MCF7 = system: MCF7
OVCAR-3 = system: OVCAR-3
EKVX = system: EKVX
NCI-H522 = system: NCI-H522
SK-MEL-28 = system: SK-MEL-28
HCT-116 = system: HCT-116
NCI/ADR-RES = system: NCI/ADR-RES
KM12 = system: KM12
786-0 = system: 786-0
PC-3 = system: PC-3
HT-29 = system: HT-29
TK-10 = system: TK-10

Row | SMILES | GI50 (UACC-62) | GI50 (NCI-H23) | GI50 (K562) | GI50 (Hs-578T) | GI50 (HOP-62) | GI50 (SF-295) | GI50 (OVCAR-4) | GI50 (MCF7) | GI50 (OVCAR-3) | GI50 (EKVX) | GI50 (NCI-H522) | GI50 (SK-MEL-28) | GI50 (HCT-116) | GI50 (NCI/ADR-RES) | GI50 (KM12) | GI50 (786-0) | GI50 (PC-3) | GI50 (HT-29) | GI50 (TK-10)
1 | O=C1C(Br)=CC2(C=C1Br)CCNC1=C2C(=O)c2ncccc2C1=O | 0.641 µM (active) | 0.39 µM (active) | 0.266 µM (active) | 1.27 µM (inactive) | 0.542 µM (active) | 1.37 µM (inactive) | 1.22 µM (inactive) | 1.14 µM (inactive) | 1.62 µM (inactive) | 1.65 µM (inactive) | 0.353 µM (active) | 0.443 µM (active) | 0.634 µM (active) | 1.82 µM (inactive) | 1.25 µM (inactive) | 1.47 µM (inactive) | 1.95 µM (inactive) | 1.99 µM (inactive) | 2.32 µM (inactive)
2 | Cc1cc(C)n(CC(Cn2nc(C)cc2C)=C(/C(Cl)=C(/Cl)Nc2ccc([N+](=O)[O-])cc2)[N+](=O)[O-])n1 | 3.9 µM (inactive) | 2.43 µM (inactive) | 1.65 µM (inactive) | 5.31 µM (inactive) | 4.46 µM (inactive) | 5.87 µM (inactive) | 1.02 µM (active) | 3.71 µM (inactive) | 4 µM (inactive) | 3.85 µM (inactive) | 2.09 µM (inactive) | 7.06 µM (inactive) | 3.7 µM (inactive) | 8.07 µM (inactive) | 1.81 µM (inactive) | 5.06 µM (inactive) | 3.42 µM (inactive) | 3.28 µM (inactive) | 3.78 µM (inactive)
3 | O=[N+]([O-])/C(C(Cl)=C(Cl)Cl)=C1/OCCS1 | 25.5 µM (inactive) | 23.4 µM (inactive) | 30 µM (inactive) | 39.7 µM (inactive) | 20.8 µM (inactive) | 33.9 µM (inactive) | 30.4 µM (inactive) | 61.4 µM (inactive) | 14.4 µM (inactive) | 32.1 µM (inactive) | 32.4 µM (inactive) | 31.8 µM (inactive) | 18 µM (inactive) | 17.1 µM (inactive) | 31.9 µM (inactive) | 23 µM (inactive) | 35.9 µM (inactive) | 27.5 µM (inactive) | 25.9 µM (inactive)
4 | CCc1cn(C2CC(CO)C(CO)S2)c(=O)[nH]c1=O (centres undefined) | > 100 µM (inactive) | > 100 µM (inactive) | > 100 µM (inactive) | > 100 µM (inactive) | > 100 µM (inactive) | > 100 µM (inactive) | > 100 µM (inactive) | > 100 µM (inactive) | > 100 µM (inactive) | > 100 µM (inactive) | > 100 µM (inactive) | > 100 µM (inactive) | > 100 µM (inactive) | > 100 µM (inactive) | > 100 µM (inactive) | > 100 µM (inactive) | > 100 µM (inactive) | > 100 µM (inactive) | > 100 µM (inactive)
5 | Nc1ncc(Cc2nn3c(COc4ccc(Cl)cc4)nnc3s2)s1 | > 100 µM (inactive) | > 100 µM (inactive) | > 100 µM (inactive) | > 100 µM (inactive) | > 100 µM (inactive) | > 100 µM (inactive) | > 100 µM (inactive) | > 100 µM (inactive) | > 100 µM (inactive) | > 100 µM (inactive) | > 100 µM (inactive) | > 100 µM (inactive) | > 100 µM (inactive) | > 100 µM (inactive) | 7.45 µM (inactive) | > 100 µM (inactive) | > 100 µM (inactive) | > 100 µM (inactive) | 45.2 µM (inactive)
6 | CC(C)NC(=O)OCc1c(COC(=O)NC(C)C)n(C)c2c1ccc1ccsc12 | 6.9 µM (inactive) | 5.28 µM (inactive) | 8.97 µM (inactive) | 8.87 µM (inactive) | 12.7 µM (inactive) | 7.62 µM (inactive) | 3.61 µM (inactive) | 5.16 µM (inactive) | 13.9 µM (inactive) | 17.5 µM (inactive) | 5.09 µM (inactive) | 12.6 µM (inactive) | 9.84 µM (inactive) | 6.75 µM (inactive) | 15.3 µM (inactive) | 6.46 µM (inactive) | 15.3 µM (inactive) | 12.1 µM (inactive) | 22.2 µM (inactive)
